Results on 9 compounds are retold here after patent US20130102595A1 (Curis, Inc., priority 2011, published 2013).

Series [1] relates to HDACs (HeLa cell nuclear extracts). The experiment in a line: HDAC enzymatic activity, Biomol Color de Lys system. The series is classed as biochemical. The settings on record: 1 hour, 25° C. The gist of the method: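 IC50 from sigmoidal fit of developer-terminated fluorescence (ex 350-380/em 440-460 nm). Reaction: 1 h at room temperature (25 °C), HeLa nuclear extract as HDAC source, artificial substrate, buffer of 50 mM Tris/Cl pH 8.0 with 137 mM NaCl, 2.7 mM KCl and 1 mM MgCl2.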

For a further series, the target named is T1, PI3Kα (p110α/p85α) (Homo sapiens, UniProt P42336).
T1 construct: GST (N); made in house; host or cells: Baculovirus-infected Sf9 cells
In words: PI3Kα ADP-Glo assay. The series is classed as biochemical. As to conditions: 20 μM PIP2, 10 μM ATP, 30 minutes. The gist of the method: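 Luminescent ADP-Glo detection, after depletion of residual ATP, quantified ADP made by PI3Kα phosphorylating 20 μM PIP2 at 10 μM ATP. The kinase step ran 30 min at room temperature in HEPES pH 7.4 with MgCl2, DTT and orthovanadate, using baculovirus/Sf9-expressed full-length p110α/p85α complex.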

pIC50: −log10 of the molar value.

For orientation: pIC50 means −log10 of the IC50, conventionally taken in molar units. High values mean a small IC50, low ones a large IC50. One may read the melting point as the temperature of the solid-liquid transition.

T1 sequence (P42336 whole entry): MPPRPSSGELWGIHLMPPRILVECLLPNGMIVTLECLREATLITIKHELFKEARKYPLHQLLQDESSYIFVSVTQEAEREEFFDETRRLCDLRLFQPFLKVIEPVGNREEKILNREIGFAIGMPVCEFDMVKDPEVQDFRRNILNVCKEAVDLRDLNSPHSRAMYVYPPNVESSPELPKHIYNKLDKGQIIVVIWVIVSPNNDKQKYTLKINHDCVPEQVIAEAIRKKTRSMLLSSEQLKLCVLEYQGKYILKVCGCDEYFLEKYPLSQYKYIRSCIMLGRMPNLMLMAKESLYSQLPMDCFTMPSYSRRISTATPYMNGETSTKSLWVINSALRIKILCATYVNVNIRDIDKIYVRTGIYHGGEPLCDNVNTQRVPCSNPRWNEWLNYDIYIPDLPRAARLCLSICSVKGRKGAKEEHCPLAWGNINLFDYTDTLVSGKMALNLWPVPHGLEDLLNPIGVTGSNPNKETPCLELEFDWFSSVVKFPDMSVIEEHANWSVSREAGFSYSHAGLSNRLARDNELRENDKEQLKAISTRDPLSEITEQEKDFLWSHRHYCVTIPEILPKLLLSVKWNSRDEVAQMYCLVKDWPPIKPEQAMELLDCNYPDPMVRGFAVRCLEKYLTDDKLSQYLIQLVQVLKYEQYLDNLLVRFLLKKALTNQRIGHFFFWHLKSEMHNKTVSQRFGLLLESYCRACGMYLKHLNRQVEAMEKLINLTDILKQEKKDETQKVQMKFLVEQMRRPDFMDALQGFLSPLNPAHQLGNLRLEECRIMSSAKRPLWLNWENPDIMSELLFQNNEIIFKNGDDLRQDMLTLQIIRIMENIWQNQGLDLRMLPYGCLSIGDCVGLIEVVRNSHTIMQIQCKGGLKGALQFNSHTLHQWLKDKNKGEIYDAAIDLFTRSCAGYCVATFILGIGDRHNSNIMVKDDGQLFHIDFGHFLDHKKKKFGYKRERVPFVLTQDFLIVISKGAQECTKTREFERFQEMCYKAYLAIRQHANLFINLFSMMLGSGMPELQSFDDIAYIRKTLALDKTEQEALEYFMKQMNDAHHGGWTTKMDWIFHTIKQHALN
T1 sequence (P27986 whole entry partner): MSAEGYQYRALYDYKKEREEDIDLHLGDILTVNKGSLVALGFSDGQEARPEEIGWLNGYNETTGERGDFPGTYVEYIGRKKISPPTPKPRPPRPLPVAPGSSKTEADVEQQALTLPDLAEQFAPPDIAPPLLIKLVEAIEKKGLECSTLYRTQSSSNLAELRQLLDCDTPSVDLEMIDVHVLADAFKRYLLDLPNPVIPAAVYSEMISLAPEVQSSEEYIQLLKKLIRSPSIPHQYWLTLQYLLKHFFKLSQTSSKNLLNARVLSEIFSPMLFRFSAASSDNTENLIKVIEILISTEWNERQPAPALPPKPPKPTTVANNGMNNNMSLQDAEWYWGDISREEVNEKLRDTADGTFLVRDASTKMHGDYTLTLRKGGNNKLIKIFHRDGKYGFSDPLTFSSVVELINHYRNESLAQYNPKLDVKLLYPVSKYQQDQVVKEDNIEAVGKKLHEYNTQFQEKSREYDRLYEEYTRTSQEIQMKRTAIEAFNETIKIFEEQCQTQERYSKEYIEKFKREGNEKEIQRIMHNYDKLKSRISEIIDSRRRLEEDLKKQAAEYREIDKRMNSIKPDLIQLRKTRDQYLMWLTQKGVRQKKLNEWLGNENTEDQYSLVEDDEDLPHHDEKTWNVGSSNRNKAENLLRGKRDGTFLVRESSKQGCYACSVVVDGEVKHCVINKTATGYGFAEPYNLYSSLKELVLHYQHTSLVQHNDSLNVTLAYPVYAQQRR

In turn, `CN(Cc1cc2nc(-c3cncnc3)nc(N3CCOCC3)c2s1)c1ncc(C(=O)NO)cn1` [Compound 119, N-hydroxy-2-(methyl((4-morpholino-2-(pyrimidin-5-yl)thieno[3,2-d]pyrimidin-6-yl)methyl)amino)pyrimidine-5-carboxamide] gave a melting point of 159 to 160 °C. Moreover, the pIC50 in series [1] is over 7.00. The same compound had a negative-log IC50 (pIC50) at PI3Kα (p110α/p85α) of over 7.00.
In turn, `CN(Cc1cc2nc(-c3ccc(C#N)cc3)nc(N3CCOCC3)c2s1)c1ncc(C(=O)NO)cn1` [Compound 146, 2-(((2-(4-cyanophenyl)-4-morpholinothieno[3,2-d]pyrimidin-6-yl)methyl)(methyl)amino)-N-hydroxypyrimidine-5-carboxamide] displayed a melting point of 214 to 216 °C. Moreover, in series [1], the negative-log IC50 (pIC50) is over 7.00. This compound also gave a pIC50 against PI3Kα (p110α/p85α) of under 5.00.
The like results for `CNc1ccc(-c2nc(N3CCOCC3)c3sc(C(C)(C)Nc4ncc(C(=O)NO)cn4)cc3n2)cn1` [Compound 240, N-Hydroxy-2-(2-(2-(6-(methylamino)pyridin-3-yl)-4-morpholinothieno[3,2-d]pyrimidin-6-yl)propan-2-ylamino)pyrimidine-5-carboxamide] were, in that order, 200 to 205 °C, over 7.00 and over 7.00.
For `CS(=O)(=O)N1CCN(Cc2cc3nc(-c4cccc5[nH]ncc45)nc(N4CCN(CCCCCC(=O)NO)CC4)c3s2)CC1` [Compound 31, 6-(4-(2-(1H-indazol-4-yl)-6-((4-(methylsulfonyl)piperazin-1-yl)methyl)thieno[3,2-d]pyrimidin-4-yl)piperazin-1-yl)-N-hydroxyhexanamide] the same measures were 140 to 145 °C, 6.00 to 7.00 and under 5.00.
The like results for `CS(=O)(=O)N1CCN(Cc2cc3nc(-c4cccc5[nH]ncc45)nc(N4CCN(CCCCC(=O)NO)CC4)c3s2)CC1` [Compound 30, 5-(4-(2-(1H-indazol-4-yl)-6-((4-(methylsulfonyl)piperazin-1-yl)methyl)thieno[3,2-d]pyrimidin-4-yl)piperazin-1-yl)-N-hydroxypentanamide] were, in that order, 142 to 145 °C, 6.00 to 7.00 and under 5.00.
Compound `Nc1ncc(-c2nc(N3CCOCC3)c3sc(NCCCCC(=O)NO)cc3n2)cn1` [Compound 226] returned a melting point of 175 to 180 °C. Further, in series [1], the negative-log IC50 (pIC50) was over 7.00. This compound had a pIC50 against PI3Kα (p110α/p85α) of over 7.00.
With `Nc1ccc(-c2nc(N3CCOCC3)c3sc(CNc4ncc(C(=O)NO)cn4)cc3n2)cc1` [Compound 211, 2-((2-(4-aminophenyl)-4-morpholinothieno[3,2-d]pyrimidin-6-yl)methylamino)-N-hydroxypyrimidine-5-carboxamide], the melting point lay within 217 to 223 °C. This compound also gave a pIC50 in series [1] of over 7.00. The same compound showed a pIC50 at PI3Kα (p110α/p85α) of 6.00 to 7.00.
For `CNCCOc1ccc(-c2nc(N3CCOCC3)c3sc(CN(C)c4ncc(C(=O)NO)cn4)cc3n2)cn1` [Compound 258, N-Hydroxy-2-(methyl((2-(6-(2-(methylamino)ethoxy)pyridin-3-yl)-4-morpholinothieno[3,2-d]pyrimidin-6-yl)methyl)amino)pyrimidine-5-carboxamide] the same measures were 170 to 175 °C, over 7.00 and under 5.00.
The like results for `CS(=O)(=O)N1CCN(Cc2cc3nc(-c4ccc(OCCCCC(=O)NO)cc4)nc(N4CCOCC4)c3s2)CC1` [Compound 319, N-Hydroxy-5-(4-(6-((4-(methylsulfonyl)piperazin-1-yl)methyl)-4-morpholinothieno[3,2-d]pyrimidin-2-yl)phenoxy)pentanamide] were, in that order, 140 to 144 °C, 6.00 to 7.00 and 6.00 to 7.00.
